For 34 compounds, IC50 results are on record in patent US9694016B2 (Novartis AG, priority 2013, dated 2017).

Structures are written as SMILES. pIC50: −log10 of the molar value.

This experiment deals with b-Raf (V600E) (Homo sapiens (Human), UniProt P15056, V600E). As to conditions: read-out: b-Raf IC-50; Table 2; AlphaScreen, 3 hours reaction. For orientation: Alpha assays give light when donor and acceptor beads are brought close together.
b-Raf (V600E), sequence (P15056 whole entry V600E): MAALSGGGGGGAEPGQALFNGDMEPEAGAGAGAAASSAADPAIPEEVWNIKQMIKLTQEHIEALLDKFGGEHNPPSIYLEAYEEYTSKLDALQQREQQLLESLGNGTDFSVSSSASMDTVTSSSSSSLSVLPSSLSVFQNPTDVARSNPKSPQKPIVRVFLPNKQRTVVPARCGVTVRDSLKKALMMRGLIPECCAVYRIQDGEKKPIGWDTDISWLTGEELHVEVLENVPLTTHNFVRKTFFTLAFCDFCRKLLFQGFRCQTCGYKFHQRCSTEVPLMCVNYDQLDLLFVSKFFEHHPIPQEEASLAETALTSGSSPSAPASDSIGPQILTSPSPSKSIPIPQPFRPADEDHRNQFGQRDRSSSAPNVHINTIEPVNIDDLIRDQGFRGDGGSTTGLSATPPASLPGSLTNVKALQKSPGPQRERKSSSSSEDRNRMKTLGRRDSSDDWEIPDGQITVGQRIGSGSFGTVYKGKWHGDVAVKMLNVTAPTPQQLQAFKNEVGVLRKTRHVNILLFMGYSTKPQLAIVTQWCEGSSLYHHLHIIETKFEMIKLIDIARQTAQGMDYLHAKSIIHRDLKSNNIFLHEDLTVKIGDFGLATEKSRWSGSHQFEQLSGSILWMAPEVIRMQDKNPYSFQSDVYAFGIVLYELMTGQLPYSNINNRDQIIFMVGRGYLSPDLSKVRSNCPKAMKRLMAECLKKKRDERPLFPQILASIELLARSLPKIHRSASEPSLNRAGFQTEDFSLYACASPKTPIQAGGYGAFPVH
For the compound `CCOc1ncc(-c2cc(NC(=O)c3cc(C(F)(F)F)c(=O)n(CC)c3)cnc2C)cc1N1CCOCC1` [Example 241, N-(6′-ethoxy-2-methyl-5′-morpholino-[3,3′-bipyridin]-5-yl)-1-ethyl-6-oxo-5-(trifluoromethyl)-1,6-dihydropyridine-3-carboxamide], the pIC50 was 8.24.
Then `CCOc1ncc(-c2cc(NC(=O)c3cccc(S(C)(=O)=O)c3)cnc2C)cc1N1CCOCC1` [Example 242, N-(6′-ethoxy-2-methyl-5′-morpholino-[3,3′-bipyridin]-5-yl)-3-(methylsulfonyl)benzamide], with 8.41; and `CCOc1ncc(-c2cc(NC(=O)c3ccnc(S(C)(=O)=O)c3)cnc2C)cc1N1CCOCC1` [Example 243, N-(6′-ethoxy-2-methyl-5′-morpholino-[3,3′-bipyridin]-5-yl)-2-(methylsulfonyl)isonicotinamide], with 8.28; and `CCOc1ncc(-c2cc(NC(=O)c3cccc(-c4nnco4)c3)cnc2C)cc1N1CCOCC1` [Example 244, N-(6′-ethoxy-2-methyl-5′-morpholino-[3,3′-bipyridin]-5-yl)-3-(1,3,4-oxadiazol-2-yl)benzamide], with 8.12.
For `CCOc1ncc(-c2cc(NC(=O)c3cc(C4CC4)on3)cnc2C)cc1N1CCOCC1` [Example 245, 5-cyclopropyl-N-(6′-ethoxy-2-methyl-5′-morpholino-[3,3′-bipyridin]-5-yl)isoxazole-3-carboxamide], the pIC50 was 8.89.
Then `CCOc1ncc(-c2cc(NC(=O)c3ccnc(C(F)(F)F)c3)cnc2C)cc1N1CCOCC1` [Example 246, N-(6′-ethoxy-2-methyl-5′-morpholino-[3,3′-bipyridin]-5-yl)-2-(trifluoromethyl)isonicotinamide], with 8.92.
The value for `CCOc1ncc(-c2cc(NC(=O)c3ccnc(C(F)F)c3)cnc2C)cc1N1CCOCC1` [Example 247, 2-(difluoromethyl)-N-(6′-ethoxy-2-methyl-5′-morpholino-[3,3′-bipyridin]-5-yl)isonicotinamide] was 8.96; that for `CCOc1ncc(-c2cc(NC(=O)c3cccc(C(F)(F)F)c3)cnc2C)cc1N1CCOCC1` [Example 248, N-(6′-ethoxy-2-methyl-5′-morpholino-[3,3′-bipyridin]-5-yl)-3-(trifluoromethyl)benzamide] was 8.92.
On to `Cc1ncc(NC(=O)c2cc(CN(C)C)cc(C(F)(F)F)c2)cc1-c1cnc(C#N)c(N2CCOCC2)c1` [Example 249, N-(6′-cyano-2-methyl-5′-morpholino-[3,3′-bipyridin]-5-yl)-3-((dimethylamino)methyl)-5-(trifluoromethyl)benzamide], for which the pIC50 was 7.44.
Consider `Cc1ncc(NC(=O)c2ccnc(C(C)C)c2)cc1-c1cnc(C#N)c(N2CCOCC2)c1` [Example 251, N-(6′-cyano-2-methyl-5′-morpholino-[3,3′-bipyridin]-5-yl)-2-isopropylisonicotinamide], for which the pIC50 was 8.51.
Then `CCOc1ncc(-c2cc(NC(=O)c3ccnc(C(C)C)c3)cnc2C)cc1N1CCOCC1` [Example 252, N-(6′-ethoxy-2-methyl-5′-morpholino-[3,3′-bipyridin]-5-yl)-2-isopropylisonicotinamide], with 8.51; and `CCOc1ncc(-c2cc(NC(=O)c3ccnc(C(C)(C)F)c3)cnc2C)cc1N1CCOCC1` [Example 253, N-(6′-ethoxy-2-methyl-5′-morpholino-[3,3′-bipyridin]-5-yl)-2-(2-fluoropropan-2-yl)isonicotinamide], with 8.59; and `CCOc1ncc(-c2cc(NC(=O)c3ccnc(C4CC4)c3)cnc2C)cc1N1CCOCC1` [Example 254, 2-cyclopropyl-N-(6′-ethoxy-2-methyl-5′-morpholino-[3,3′-bipyridin]-5-yl)isonicotinamide], with 8.74.
Then `CCOc1ncc(-c2cc(NC(=O)c3ccnc(C4COC4)c3)cnc2C)cc1N1CCOCC1` [Example 255, N-(6′-ethoxy-2-methyl-5′-morpholino-[3,3′-bipyridin]-5-yl)-2-(oxetan-3-yl)isonicotinamide], with 8.25; and `C=C(C)c1ccc(F)c(NC(=O)c2ccc(C)c(-c3cnc(OCC)c(N4CCOCC4)c3)c2)c1` [Example 256, 3-(6-ethoxy-5-morpholinopyridin-3-yl)-N-(2-fluoro-5-(prop-1-en-2-yl)phenyl)-4-methylbenzamide], with 8.74; and `CCOc1ncc(-c2cc(NC(=O)c3cc(N4CCN(CC)CC4)cc(C(F)(F)F)c3)cnc2C)cc1N1CCOCC1` [Example 257, N-(6′-ethoxy-2-methyl-5′-morpholino-[3,3′-bipyridin]-5-yl)-3-(4-ethylpiperazin-1-yl)-5-(trifluoromethyl)benzamide], with 8.00.
The value for `CCOc1ncc(-c2cc(NC(=O)c3cc(CN(C)C)cc(C(F)(F)F)c3)cnc2C)cc1N1CCOCC1` [Example 258, 3-((dimethylamino)methyl)-N-(6′-ethoxy-2-methyl-5′-morpholino-[3,3′-bipyridin]-5-yl)-5-(trifluoromethyl)benzamide] was 8.08; that for `CCOc1ncc(-c2cc(NC(=O)c3cnnc(C(F)(F)F)c3)cnc2C)cc1N1CCOCC1` [Example 259, N-(6′-ethoxy-2-methyl-5′-morpholino-[3,3′-bipyridin]-5-yl)-6-(trifluoromethyl)pyridazine-4-carboxamide] was 8.51; that for `COc1ncc(-c2cc(NC(=O)c3ccnc(C4(C#N)CC4)c3)cnc2Cl)cc1N1CCOCC1` [Example 260, N-(2-chloro-6′-methoxy-5′-morpholino-[3,3′-bipyridin]-5-yl)-2-(1-cyanocyclopropyl)isonicotinamide] was 8.54.
Regarding `COc1ncc(-c2cc(NC(=O)c3ccnc(C(C)(F)F)c3)cnc2Cl)cc1N1CCOCC1` [Example 261, N-(2-chloro-6′-methoxy-5′-morpholino-[3,3′-bipyridin]-5-yl)-2-(1,1-difluoroethyl)isonicotinamide], the pIC50 was 8.74.
The value for `COc1ncc(-c2cc(NC(=O)c3ccnc(C(C)(C)F)c3)cnc2Cl)cc1N1CCOCC1` [Example 262, N-(2-chloro-6′-methoxy-5′-morpholino-[3,3′-bipyridin]-5-yl)-2-(2-fluoropropan-2-yl)isonicotinamide] was 8.47; that for `COc1ncc(-c2cc(NC(=O)c3cnnc(C(F)(F)F)c3)cnc2Cl)cc1N1CCOCC1` [Example 263, N-(2-chloro-6′-methoxy-5′-morpholino-[3,3′-bipyridin]-5-yl)-6-(trifluoromethyl)pyridazine-4-carboxamide] was 8.05.
Then `COc1ncc(-c2cc(NC(=O)c3ccnc(C(C)(C)C#N)c3)cnc2Cl)cc1N1CCOCC1` [Example 264, N-(2-chloro-6′-methoxy-5′-morpholino-[3,3′-bipyridin]-5-yl)-2-(2-cyanopropan-2-yl)isonicotinamide], with 8.07; and `Cc1ncc(NC(=O)c2ccnc(C(C)(C)C#N)c2)cc1-c1cnc(N(C)C)c(N2CCOCC2)c1` [Example 265, 2-(2-cyanopropan-2-yl)-N-(6′-(dimethylamino)-2-methyl-5′-morpholino-[3,3′-bipyridin]-5-yl)isonicotinamide], with 8.35; and `Cc1ncc(NC(=O)c2ccnc(C3(C#N)CC3)c2)cc1-c1cnc(N(C)C)c(N2CCOCC2)c1` [Example 266, 2-(1-cyanocyclopropyl)-N-(6′-(dimethylamino)-2-methyl-5′-morpholino-[3,3′-bipyridin]-5-yl)isonicotinamide], with 8.72.
Then `Cc1ncc(NC(=O)c2ccnc(C(C)(F)F)c2)cc1-c1cnc(N(C)C)c(N2CCOCC2)c1` [Example 267], with 8.96; and `Cc1ncc(NC(=O)c2ccnc(C(C)(C)F)c2)cc1-c1cnc(N(C)C)c(N2CCOCC2)c1` [Example 268, N-(6′-(dimethylamino)-2-methyl-5-morpholino-[3,3′-bipyridin]-5-yl)-2-(2-fluoropropan-2-yl)isonicotinamide], with 8.80.
Turning to `Cc1ncc(NC(=O)c2cc(CN(C)C)cc(C(F)(F)F)c2)cc1-c1cnc(N(C)C)c(N2CCOCC2)c1` [Example 269, N-(6′-(dimethylamino)-2-methyl-5′-morpholino-[3,3′-bipyridin]-5-yl)-3-((dimethylamino)methyl)-5-(trifluoromethyl)benzamide], the pIC50 was 8.62.
Then `Cc1ncc(NC(=O)c2cnnc(C(F)(F)F)c2)cc1-c1cnc(N(C)C)c(N2CCOCC2)c1` [Example 270, N-(6′-(dimethylamino)-2-methyl-5′-morpholino-[3,3′-bipyridin]-5-yl)-6-(trifluoromethyl)pyridazine-4-carboxamide], with 9.30; and `Cc1ncc(NC(=O)c2cnnc(C3CC3)c2)cc1-c1cnc(N(C)C)c(N2CCOCC2)c1` [Example 271, 6-cyclopropyl-N-(6′-(dimethylamino)-2-methyl-5′-morpholino-[3,3′-bipyridin]-5-yl)pyridazine-4-carboxamide], with 9.15.
For `Cc1ncc(NC(=O)c2ccnc(C(C)(C)C#N)c2)cc1-c1cnc(OC2CCOCC2)c(N2CCOCC2)c1` [Example 272, 2-(2-cyanopropan-2-yl)-N-(2-methyl-5′-morpholino-6′-((tetrahydro-2H-pyran-4-yl)oxy)-[3,3′-bipyridin]-5-yl)isonicotinamide], the pIC50 is 8.20.
With `Cc1ncc(NC(=O)c2ccnc(C(C)(C)F)c2)cc1-c1cnc(OC2CCOCC2)c(N2CCOCC2)c1` [Example 273, 2-(2-fluoropropan-2-yl)-N-(2-methyl-5′-morpholino-6′-((tetrahydro-2H-pyran-4-yl)oxy)-[3,3′-bipyridin]-5-yl)isonicotinamide], the pIC50 was 8.57.
Then `Cc1ccc(NC(=O)c2ccnc(S(C)(=O)=O)c2)cc1-c1cnc(OC2CCOCC2)c(N2CCOCC2)c1` [Example 274, N-(4-methyl-3-(5-morpholino-6-((tetrahydro-2H-pyran-4-yl)oxy)pyridin-3-yl)phenyl)-2-(methylsulfonyl)isonicotinamide], with 9.10; and `Cc1ccc(NC(=O)c2cnnc(C(F)(F)F)c2)cc1-c1cnc(OC2CCOCC2)c(N2CCOCC2)c1` [Example 275, N-(4-methyl-3-(5-morpholino-6-((tetrahydro-2H-pyran-4-yl)oxy)pyridin-3-yl)phenyl)-6-(trifluoromethyl)pyridazine-4-carboxamide], with 9.30.
